Source: PubChem BioAssay (NCI)
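Where inhibition never reached the appropriate level, the endpoint shown equals the highest concentration tested. Otherwise, values were interpolated linearly from a five-concentration, 48-hour dose response in 96-well plates. GI50: concentration for 50% inhibition of growth. TGI marks complete inhibition of growth.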

How the values were obtained:
Experiment in all cases: DTP human tumour cell line panel, 48 h
MCF7 breast = tested on: MCF7 breast
NCI-H522 lung = tested on: NCI-H522 lung
MDA-MB-468 breast = tested on: MDA-MB-468 breast
SK-MEL-2 melanoma = tested on: SK-MEL-2 melanoma
IGROV1 ovarian = tested on: IGROV1 ovarian
DU-145 prostate = tested on: DU-145 prostate
K-562 leukemia = tested on: K-562 leukemia
U251 CNS = tested on: U251 CNS
786-0 renal = tested on: 786-0 renal
SNB-19 CNS = tested on: SNB-19 CNS
EKVX NSCLC = tested on: EKVX NSCLC
NCI-H460 lung = tested on: NCI-H460 lung
MALME-3M melanoma = tested on: MALME-3M melanoma
UACC-257 melanoma = tested on: UACC-257 melanoma
BT-549 breast = tested on: BT-549 breast
OVCAR-8 ovarian = tested on: OVCAR-8 ovarian
ACHN renal = tested on: ACHN renal
HT29 colon = tested on: HT29 colon
LOX IMVI melanoma = tested on: LOX IMVI melanoma
SK-MEL-5 melanoma = tested on: SK-MEL-5 melanoma
HCT-116 colon = tested on: HCT-116 colon
HS 578T breast = tested on: HS 578T breast
NCI/ADR-RES ovarian = tested on: NCI/ADR-RES ovarian
KM12 colon = tested on: KM12 colon
SF-268 CNS = tested on: SF-268 CNS
SF-295 CNS = tested on: SF-295 CNS
COLO 205 colon = tested on: COLO 205 colon
HCC-2998 colon = tested on: HCC-2998 colon
T-47D breast = tested on: T-47D breast
CCRF-CEM leukemia = tested on: CCRF-CEM leukemia
OVCAR-3 ovarian = tested on: OVCAR-3 ovarian
A549 NSCLC = tested on: A549 NSCLC
SNB-75 CNS = tested on: SNB-75 CNS
CAKI-1 renal = tested on: CAKI-1 renal
HCT-15 colon = tested on: HCT-15 colon
M14 melanoma = tested on: M14 melanoma
SF-539 CNS = tested on: SF-539 CNS
MDA-MB-231 breast = tested on: MDA-MB-231 breast
MDA-MB-435 = tested on: MDA-MB-435
TK-10 renal = tested on: TK-10 renal
PC-3 prostate = tested on: PC-3 prostate
OVCAR-4 ovarian = tested on: OVCAR-4 ovarian
OVCAR-5 ovarian = tested on: OVCAR-5 ovarian
HL-60(TB) leukemia = tested on: HL-60(TB) leukemia
A498 renal = tested on: A498 renal
RXF 393 renal = tested on: RXF 393 renal
HOP-92 NSCLC = tested on: HOP-92 NSCLC
HOP-62 NSCLC = tested on: HOP-62 NSCLC
RPMI-8226 leukemia = tested on: RPMI-8226 leukemia
MOLT-4 leukemia = tested on: MOLT-4 leukemia
SK-OV-3 ovarian = tested on: SK-OV-3 ovarian
SK-MEL-28 melanoma = tested on: SK-MEL-28 melanoma
NCI-H23 lung = tested on: NCI-H23 lung
SR leukemia = tested on: SR leukemia
SW-620 colon = tested on: SW-620 colon
SN12C renal = tested on: SN12C renal
UACC-62 melanoma = tested on: UACC-62 melanoma
UO-31 renal = tested on: UO-31 renal
NCI-H226 lung = tested on: NCI-H226 lung

**Q.** Which results are given for `C#C[C@]1(O)CC[C@H]2[C@@H]3CC=C4c5sc(-c6ccc([N+](=O)[O-])cc6)nc5CC[C@]4(C)[C@H]3CC[C@@]21C`?
**A.** GI50 (MCF7 breast): 3.07 µM; TGI (MCF7 breast): 16.6 µM; GI50 (NCI-H522 lung): 15.1 µM; TGI (NCI-H522 lung): 38 µM; GI50 (MDA-MB-468 breast): 12.4 µM; TGI (MDA-MB-468 breast): 28.9 µM; GI50 (SK-MEL-2 melanoma): 7.18 µM; TGI (SK-MEL-2 melanoma): 21.3 µM; GI50 (IGROV1 ovarian): 10.3 µM; TGI (IGROV1 ovarian): 30.9 µM; GI50 (DU-145 prostate): 12.8 µM; TGI (DU-145 prostate): 30.3 µM; GI50 (K-562 leukemia): 3.26 µM; TGI (K-562 leukemia): > 100 µM; GI50 (U251 CNS): 2.99 µM; TGI (U251 CNS): 18.8 µM; GI50 (786-0 renal): 1.84 µM; TGI (786-0 renal): 13.4 µM; GI50 (SNB-19 CNS): 13.8 µM; TGI (SNB-19 CNS): 29.8 µM; GI50 (EKVX NSCLC): 10.1 µM; TGI (EKVX NSCLC): 23.8 µM; GI50 (NCI-H460 lung): 6.19 µM; TGI (NCI-H460 lung): 25.8 µM; GI50 (MALME-3M melanoma): 3.59 µM; TGI (MALME-3M melanoma): 16.5 µM; GI50 (UACC-257 melanoma): 12.1 µM; TGI (UACC-257 melanoma): 25 µM; GI50 (BT-549 breast): 3.76 µM; TGI (BT-549 breast): 16.7 µM; GI50 (OVCAR-8 ovarian): 15.3 µM; TGI (OVCAR-8 ovarian): 38.5 µM; GI50 (ACHN renal): 12.2 µM; TGI (ACHN renal): 24.6 µM; GI50 (HT29 colon): 11.4 µM; TGI (HT29 colon): 35.2 µM; GI50 (LOX IMVI melanoma): 6.89 µM; TGI (LOX IMVI melanoma): 33.1 µM; GI50 (SK-MEL-5 melanoma): 5.45 µM; TGI (SK-MEL-5 melanoma): 17.9 µM; GI50 (HCT-116 colon): 10.2 µM; TGI (HCT-116 colon): 23.3 µM; GI50 (HS 578T breast): 2.04 µM; TGI (HS 578T breast): 10.3 µM; GI50 (NCI/ADR-RES ovarian): 16.4 µM; TGI (NCI/ADR-RES ovarian): 67.9 µM; GI50 (KM12 colon): 17 µM; TGI (KM12 colon): 38.4 µM; GI50 (SF-268 CNS): 12.8 µM; TGI (SF-268 CNS): 43.6 µM; GI50 (SF-295 CNS): 0.41 µM; TGI (SF-295 CNS): 1.8 µM; GI50 (COLO 205 colon): 14.9 µM; TGI (COLO 205 colon): 33.8 µM; GI50 (HCC-2998 colon): 7.21 µM; TGI (HCC-2998 colon): 23.1 µM; GI50 (T-47D breast): 7.23 µM; TGI (T-47D breast): 25.2 µM; GI50 (CCRF-CEM leukemia): 4.36 µM; TGI (CCRF-CEM leukemia): 31.9 µM; GI50 (OVCAR-3 ovarian): 14.9 µM; TGI (OVCAR-3 ovarian): 31.7 µM; GI50 (A549 NSCLC): 12.5 µM; TGI (A549 NSCLC): 36.2 µM; GI50 (SNB-75 CNS): 2.93 µM; TGI (SNB-75 CNS): 18.6 µM; GI50 (CAKI-1 renal): 10.8 µM; TGI (CAKI-1 renal): 22.7 µM; GI50 (HCT-15 colon): 3.99 µM; TGI (HCT-15 colon): 23.9 µM; GI50 (M14 melanoma): 2.74 µM; TGI (M14 melanoma): 12.2 µM; GI50 (SF-539 CNS): 0.895 µM; TGI (SF-539 CNS): 3.61 µM; GI50 (MDA-MB-231 breast): 12.3 µM; TGI (MDA-MB-231 breast): 27.4 µM; GI50 (MDA-MB-435): 11.9 µM; TGI (MDA-MB-435): 25.9 µM; GI50 (TK-10 renal): 13.8 µM; TGI (TK-10 renal): 26.7 µM; GI50 (PC-3 prostate): 7.18 µM; TGI (PC-3 prostate): 95.7 µM; GI50 (OVCAR-4 ovarian): 15.4 µM; TGI (OVCAR-4 ovarian): 43.7 µM; GI50 (OVCAR-5 ovarian): 12 µM; TGI (OVCAR-5 ovarian): 24.3 µM; GI50 (HL-60(TB) leukemia): 13.5 µM; TGI (HL-60(TB) leukemia): 42.6 µM; GI50 (A498 renal): 4.04 µM; TGI (A498 renal): 13.8 µM; GI50 (RXF 393 renal): 0.625 µM; TGI (RXF 393 renal): 3.18 µM; GI50 (HOP-92 NSCLC): 22.3 µM; TGI (HOP-92 NSCLC): 47.4 µM; GI50 (HOP-62 NSCLC): 11.5 µM; TGI (HOP-62 NSCLC): 30 µM; GI50 (RPMI-8226 leukemia): 0.404 µM; TGI (RPMI-8226 leukemia): 6.27 µM; GI50 (MOLT-4 leukemia): 2.61 µM; TGI (MOLT-4 leukemia): 33.1 µM; GI50 (SK-OV-3 ovarian): 12.3 µM; TGI (SK-OV-3 ovarian): 30.6 µM; GI50 (SK-MEL-28 melanoma): 7.33 µM; TGI (SK-MEL-28 melanoma): 20.5 µM; GI50 (NCI-H23 lung): 13.8 µM; TGI (NCI-H23 lung): 29.9 µM; GI50 (SR leukemia): 2.49 µM; TGI (SR leukemia): > 100 µM; GI50 (SW-620 colon): 8.39 µM; TGI (SW-620 colon): 27.2 µM; GI50 (SN12C renal): 13 µM; TGI (SN12C renal): 26.3 µM; GI50 (UACC-62 melanoma): 14.3 µM; TGI (UACC-62 melanoma): 27.4 µM; GI50 (UO-31 renal): 5.02 µM; TGI (UO-31 renal): 16.2 µM; GI50 (NCI-H226 lung): 18.1 µM; TGI (NCI-H226 lung): 50.2 µM
